Laboratory results from ChEMBL document CHEMBL3885861, “Open TG-GATES”.

Species: Rattus norvegicus
Assay: Open TG-GATES - Regimen: Single
Format: toxicity, organism-based, Sprague-Dawley
Parameters: regimen Single, gender Male, age 6 weeks
Details: in vivo, po, 0 mg/kg, route gavage, dose level Control; for APTT / Bas / Eos / Fbg / Ht / Lym / MCHC / MCV / Mono / PT / Plat / RBC / Ret / WBC / Hb: tissue Blood; for KIDNEY_L / KIDNEY_R / KIDNEY_TOTAL: tissue Kidney; for LIVER: tissue Liver; for ALP / ALT / AST / BUN / CRE / DBIL / GLC / IP / K / LDH / RALB / TBIL / TC / TP / gamma-GTP / PL: tissue Plasma

SMILES: CN(C)CCCN1c2ccccc2CCc2ccccc21 [IMIPRAMINE]
- TERMINAL_BW (3 h): 203.9 g
- APTT (3 h): 16.9 s
- Bas (3 h): 0.2%
- Eos (3 h): 1%
- Fbg (3 h): 270.6 mg/dL
- Ht (3 h): 40.9%
- Lym (3 h): 79.2%
- MCHC (3 h): 32.3%
- MCV (3 h): 64.7 fL
- Mono (3 h): 2.8%
- PT (3 h): 15.9 s
- Plat (3 h): 112.7 x10_4/uL
- RBC (3 h): 632.8 x10_4/ul
- Ret (3 h): 8.2%
- WBC (3 h): 81.7 x10_2/uL
- KIDNEY_L (3 h): 0.9 g
- KIDNEY_R (3 h): 0.9 g
- KIDNEY_TOTAL (3 h): 1.7 g
- LIVER (3 h): 9.1 g
- ALP (3 h): 1571.6 IU/L
- ALT (3 h): 52 IU/L
- AST (3 h): 84.6 IU/L
- BUN (3 h): 9 mg/dL
- CRE (3 h): 0.2 mg/dL
- DBIL (3 h): 0.01 mg/dL
- GLC (3 h): 183.2 mg/dL
- IP (3 h): 8.9 mg/dL
- K (3 h): 4 meq/L
- LDH (3 h): 111 IU/L
- RALB (3 h): 2.6 g/dL
- TBIL (3 h): 0.07 mg/dL
- TC (3 h): 84 mg/dL
- TP (3 h): 5.4 g/dL
- gamma-GTP (3 h): 1.6 IU/L
- TERMINAL_BW (6 h): 201.5 g
- APTT (6 h): 15.5 s
- Bas (6 h): 0.4%
- Eos (6 h): 0.8%
- Fbg (6 h): 326 mg/dL
- Hb (6 h): 12.8 g/dL
- Ht (6 h): 39.2%
- Lym (6 h): 73.2%
- MCHC (6 h): 32.5%
- MCV (6 h): 63.9 fL
- Mono (6 h): 3%
- PT (6 h): 15.8 s
- Plat (6 h): 112.2 x10_4/uL
- RBC (6 h): 614.8 x10_4/ul
- Ret (6 h): 7.6%
- WBC (6 h): 95 x10_2/uL
- KIDNEY_L (6 h): 0.9 g
- KIDNEY_R (6 h): 0.9 g
- KIDNEY_TOTAL (6 h): 1.9 g
- LIVER (6 h): 9.1 g
- ALP (6 h): 1465 IU/L
- ALT (6 h): 52.8 IU/L
- AST (6 h): 99.2 IU/L
- BUN (6 h): 8.4 mg/dL
- CRE (6 h): 0.2 mg/dL
- GLC (6 h): 176.2 mg/dL
- IP (6 h): 9.4 mg/dL
- K (6 h): 4 meq/L
- LDH (6 h): 80.4 IU/L
- PL (6 h): 133.6 mg/dL
- RALB (6 h): 2.5 g/dL
- TBIL (6 h): 0.07 mg/dL
- TC (6 h): 72.6 mg/dL
- TP (6 h): 5.3 g/dL
- gamma-GTP (6 h): 1.2 IU/L
- TERMINAL_BW (9 h): 200.5 g
- APTT (9 h): 16 s
- Bas (9 h): 0.4%
- Eos (9 h): 1%
- Fbg (9 h): 291.6 mg/dL
- Hb (9 h): 12.9 g/dL
- Ht (9 h): 40.1%
- Lym (9 h): 80.8%
- MCHC (9 h): 32.3%
- MCV (9 h): 65.1 fL
- Mono (9 h): 2.4%
- PT (9 h): 15.3 s
- Plat (9 h): 110.6 x10_4/uL
- RBC (9 h): 615.4 x10_4/ul
- Ret (9 h): 8.2%
- WBC (9 h): 76.7 x10_2/uL
- KIDNEY_L (9 h): 0.9 g
- KIDNEY_R (9 h): 0.9 g
- KIDNEY_TOTAL (9 h): 1.8 g
- LIVER (9 h): 8.2 g
- ALP (9 h): 1396.6 IU/L
- ALT (9 h): 37.4 IU/L
- AST (9 h): 69.6 IU/L
- BUN (9 h): 8 mg/dL
- CRE (9 h): 0.1 mg/dL
- DBIL (9 h): 0.008 mg/dL
- GLC (9 h): 178 mg/dL
- IP (9 h): 9.9 mg/dL
- K (9 h): 4.1 meq/L
- LDH (9 h): 59 IU/L
- PL (9 h): 136 mg/dL
- RALB (9 h): 2.5 g/dL
- TBIL (9 h): 0.068 mg/dL
- TC (9 h): 74.4 mg/dL
- TP (9 h): 5.2 g/dL
- gamma-GTP (9 h): 1 IU/L
- TERMINAL_BW (24 h): 217.3 g
- APTT (24 h): 17.1 s
- Bas (24 h): 0.2%
- Eos (24 h): 1.2%
- Fbg (24 h): 265.2 mg/dL
- Ht (24 h): 41.7%
- Lym (24 h): 76.2%
- MCHC (24 h): 32.1%
- MCV (24 h): 66.7 fL
- Mono (24 h): 2.8%
- PT (24 h): 16.1 s
- Plat (24 h): 114.2 x10_4/uL
- RBC (24 h): 626.2 x10_4/ul
- Ret (24 h): 7.8%
- WBC (24 h): 93.4 x10_2/uL
- KIDNEY_L (24 h): 0.9 g
- KIDNEY_R (24 h): 0.9 g
- KIDNEY_TOTAL (24 h): 1.8 g
- LIVER (24 h): 10.2 g
- ALP (24 h): 1689.2 IU/L
- ALT (24 h): 59 IU/L
- AST (24 h): 83.4 IU/L
- CRE (24 h): 0.2 mg/dL
- DBIL (24 h): 0.02 mg/dL
- GLC (24 h): 185.4 mg/dL
- IP (24 h): 8.1 mg/dL
- K (24 h): 3.9 meq/L
- LDH (24 h): 75.2 IU/L
- RALB (24 h): 2.6 g/dL
- TBIL (24 h): 0.06 mg/dL
